Assay results as given in US20230278972A1, “SUBSTITUTED HALOALKYL SULFONANILIDE HERBICIDES” (FMC Corporation, priority 2020, published 2023).

What was measured:
Assay type in all cases: in vivo
[1] = system: kochia (Bassia scoparia); assay: Test A preemergence, kochia; conditions: Preemergence; for Kochia plant response rating: 125 g ai/ha, visual injury on 0 to 100 scale (0 no effect, 100 complete control), approximately 10 days; for Plant response rating, Kochia: 0 to 100 scale (0 no effect, 100 complete control)
Summary of the method: (§1)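 Seeds are sown in loam mixed with sand and sprayed on the soil surface right after planting for the preemergence test. Postemergence pots are sprayed once seedlings reach 2 to 10 cm at the one- to two-leaf stage. The same surfactant-containing, non-phytotoxic solvent formulation serves both.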

[2] = system: kochia (Bassia scoparia); assay: Test A postemergence, kochia; conditions: Postemergence, 0 to 100 scale (0 no effect, 100 complete control)
Summary of the method: as §1

[3] = system: ragweed (common ragweed, Ambrosia artemisiifolia); assay: Test A preemergence, ragweed; conditions: Preemergence; for Ragweed plant response rating: 125 g ai/ha, visual injury on 0 to 100 scale (0 no effect, 100 complete control), approximately 10 days; for Plant response rating, Ragweed: 0 to 100 scale (0 no effect, 100 complete control)
Summary of the method: as §1

[4] = system: pigweed (Amaranthus retroflexus); assay: Test A postemergence, pigweed; conditions: Postemergence, 0 to 100 scale (0 no effect, 100 complete control)
Summary of the method: as §1

[5] = system: Ryegrass, Italian (Italian ryegrass, Lolium multiflorum); assay: Test A preemergence, Ryegrass, Italian; conditions: Preemergence; for Ryegrass, Italian plant response rating: 125 g ai/ha, visual injury on 0 to 100 scale (0 no effect, 100 complete control), approximately 10 days; for Plant response rating, Ryegrass, Italian: 0 to 100 scale (0 no effect, 100 complete control)
Summary of the method: as §1

[6] = system: ragweed (common ragweed, Ambrosia artemisiifolia); assay: Test A postemergence, ragweed; conditions: Postemergence, 0 to 100 scale (0 no effect, 100 complete control)
Summary of the method: as §1

[7] = system: galium (catchweed bedstraw, Galium aparine); assay: Test A postemergence, galium; conditions: Postemergence, 0 to 100 scale (0 no effect, 100 complete control)
Summary of the method: (§2)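 Postemergence ratings come from foliar sprays onto one- to two-leaf plants of 2 to 10 cm grown in loam/sand; preemergence ratings come from a directed spray onto the soil of newly seeded pots. Formulation was a surfactant-containing non-phytotoxic solvent blend.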

[8] = system: Ryegrass, Italian (Italian ryegrass, Lolium multiflorum); assay: Test A postemergence, Ryegrass, Italian; conditions: Postemergence, 0 to 100 scale (0 no effect, 100 complete control)
Summary of the method: as §1

[9] = system: pigweed (Amaranthus retroflexus); assay: Test A preemergence, pigweed; conditions: for Pigweed plant response rating: 125 g ai/ha, visual injury on 0 to 100 scale (0 no effect, 100 complete control), approximately 10 days; for Plant response rating, Pigweed: 0 to 100 scale (0 no effect, 100 complete control)
Summary of the method: as §2

[10] = system: Foxtail, Giant (giant foxtail, Setaria faberi); assay: Test A preemergence, Foxtail, Giant; conditions: Preemergence; for Foxtail, Giant plant response rating: 125 g ai/ha, visual injury on 0 to 100 scale (0 no effect, 100 complete control), approximately 10 days; for Plant response rating, Foxtail, Giant: 0 to 100 scale (0 no effect, 100 complete control)
Summary of the method: as §1

[11] = system: wheat (Triticum aestivum); assay: Test A postemergence, wheat; conditions: Postemergence, 0 to 100 scale (0 no effect, 100 complete control)
Summary of the method: as §2

[12] = system: barnyardgrass (Echinochloa crus-galli); assay: Test A postemergence, barnyardgrass; conditions: Postemergence, 0 to 100 scale (0 no effect, 100 complete control)
Summary of the method: as §2

[13] = system: Foxtail, Giant (giant foxtail, Setaria faberi); assay: Test A postemergence, Foxtail, Giant; conditions: Postemergence, 0 to 100 scale (0 no effect, 100 complete control)
Summary of the method: as §1

[14] = system: corn (Zea mays); assay: Test A postemergence, corn; conditions: Postemergence, 0 to 100 scale (0 no effect, 100 complete control)
Summary of the method: as §1

[15] = system: blackgrass (Alopecurus myosuroides); assay: Test A postemergence, blackgrass; conditions: Postemergence, 0 to 100 scale (0 no effect, 100 complete control)
Summary of the method: as §1

[16] = system: barnyardgrass (Echinochloa crus-galli); assay: Test A preemergence, barnyardgrass; conditions: Preemergence; for Barnyardgrass plant response rating: 125 g ai/ha, visual injury on 0 to 100 scale (0 no effect, 100 complete control), approximately 10 days; for Plant response rating, Barnyardgrass: 0 to 100 scale (0 no effect, 100 complete control)
Summary of the method: as §1

[17] = 125 g ai/ha, visual injury approx. 10 days
[18] = 500 g ai/ha, visual injury, approx. 10 days
[19] = 500 g ai/ha, visual injury vs untreated controls after approx. 10 days
[20] = 31 g ai/ha, visual injury, approx. 10 days

Structure (SMILES) | Kochia plant response rating [1] | Plant response rating, Kochia ([1]; 500 g ai/ha) | Plant response rating, Kochia [2, 17] | Ragweed plant response rating [3] | Plant response rating, Ragweed ([3]; 500 g ai/ha) | Plant response rating, Pigweed [4, 17] | Ryegrass, Italian plant response rating [5] | Plant response rating, Ryegrass, Italian ([5]; 500 g ai/ha) | Plant response rating, Ragweed [6, 17] | Plant response rating, Galium [7, 17] | Plant response rating, Ryegrass, Italian [8, 17] | Pigweed plant response rating [9] | Plant response rating, Pigweed ([9]; 500 g ai/ha) | Foxtail, Giant plant response rating [10] | Plant response rating, Wheat [11, 17] | Plant response rating, Barnyardgrass [12, 17] | Plant response rating, Foxtail, Giant [13, 17] | Plant response rating, Corn [14, 17] | Plant response rating, Blackgrass [15, 17] | Barnyardgrass plant response rating [16] | other results
CCn1cc(-c2cc(N(S(=O)(=O)C(F)(F)F)S(=O)(=O)C(F)(F)F)c(C)cc2C)c(=O)n(CC)c1=O [Compound 43] | 0 | 90 | 20 | 0 | 0 | 80 | 100 | 100 | 60 | 70 | 20 | 20 | 60 | 100 | 70 | 90 | 90 | 10 | 70 | 90 | Plant response rating, Kochia [2, 18]: 40; Plant response rating, Pigweed [4, 18]: 80; Plant response rating, Ragweed [6, 18]: 60; Plant response rating, Galium [7, 18]: 90; Plant response rating, Ryegrass, Italian [8, 18]: 50; Plant response rating, Foxtail, Giant ([10]; 500 g ai/ha): 100; Plant response rating, Wheat [11, 18]: 70; Plant response rating, Barnyardgrass [12, 18]: 90; Plant response rating, Foxtail, Giant [13, 18]: 90; Plant response rating, Corn [14, 18]: 80; Plant response rating, Blackgrass [15, 18]: 90; Plant response rating, Barnyardgrass ([16]; 500 g ai/ha): 100
Cc1cc(C)c(C2=NOC3(C2)CC(C)(C)CC(C)(C)C3)cc1NS(=O)(=O)C(F)(F)F [Compound 122] | 70 | 30 | 0 | 0 | 0 | 20 | 30 | 80 | 0 | 60 | 0 | 0 | 30 | 50 | 0 | 10 | 0 | 0 | 0 | 0 | Kochia plant response rating [2, 19]: 10; Pigweed plant response rating [4, 19]: 50; Ragweed plant response rating [6, 19]: 0; Galium plant response rating [7, 19]: 90; Ryegrass, Italian plant response rating [8, 19]: 0; Plant response rating, Foxtail, Giant ([10]; 500 g ai/ha): 100; Wheat plant response rating [11, 19]: 0; Barnyardgrass plant response rating [12, 19]: 70; Foxtail, Giant plant response rating [13, 19]: 20; Corn plant response rating [14, 19]: 0; Blackgrass plant response rating [15, 19]: 10; Plant response rating, Barnyardgrass ([16]; 500 g ai/ha): 70
COC1CCCN(C(=O)c2cc(N(C(C)=O)S(=O)(=O)C(F)(F)F)c(C)cc2C)C1 (centres unmarked) [Compound 93] | 50 | – | 30 | 70 | – | 50 | 80 | – | 30 | 80 | 20 | 100 | – | 80 | 60 | 60 | 10 | 20 | 70 | 80 | Plant response rating, Kochia [1, 20]: 0; Plant response rating, Kochia ([2]; 31 g ai/ha): 10; Plant response rating, Ragweed [3, 20]: 0; Plant response rating, Pigweed ([4]; 31 g ai/ha): 30; Plant response rating, Ryegrass, Italian [5, 20]: 0; Plant response rating, Ragweed ([6]; 31 g ai/ha): 30; Plant response rating, Galium ([7]; 31 g ai/ha): 80; Plant response rating, Ryegrass, Italian ([8]; 31 g ai/ha): 0; Plant response rating, Pigweed [9, 20]: 50; Plant response rating, Foxtail, Giant [10, 20]: 60; Plant response rating, Wheat ([11]; 31 g ai/ha): 30; Plant response rating, Barnyardgrass ([12]; 31 g ai/ha): 0; Plant response rating, Foxtail, Giant ([13]; 31 g ai/ha): 0; Plant response rating, Corn ([14]; 31 g ai/ha): 0; Plant response rating, Blackgrass ([15]; 31 g ai/ha): 20; Plant response rating, Barnyardgrass [16, 20]: 0
COc1cnn(-c2cc(N(S(=O)(=O)C(F)(F)F)S(=O)(=O)C(F)(F)F)c(C)cc2C)c(=O)c1OC [Compound 40] | 80 | 80 | 10 | 50 | 50 | 0 | 30 | 80 | 40 | 20 | 30 | 100 | 100 | 90 | 0 | 10 | 0 | 0 | 10 | 90 | Plant response rating, Kochia [2, 18]: 20; Plant response rating, Pigweed [4, 18]: 30; Plant response rating, Ragweed [6, 18]: 40; Plant response rating, Galium [7, 18]: 70; Plant response rating, Ryegrass, Italian [8, 18]: 60; Plant response rating, Foxtail, Giant ([10]; 500 g ai/ha): 100; Plant response rating, Wheat [11, 18]: 40; Plant response rating, Barnyardgrass [12, 18]: 40; Plant response rating, Foxtail, Giant [13, 18]: 10; Plant response rating, Corn [14, 18]: 0; Plant response rating, Blackgrass [15, 18]: 10; Plant response rating, Barnyardgrass ([16]; 500 g ai/ha): 90
